Reference: US7863313B2, “Methods for the treatment of inflammatory diseases” (Cortical PTY LTD, priority 2003, dated 2011)
Marks after values point to notes of the source that are not given here. One block for each compound: values may come before it.

Key:
[1] = tested on: S112 human dermal fibroblasts; test: Cytotoxicity: apoptosis by annexin V and propidium iodide flow cytometry; assay type: cell-based; settings: 50 μM versus control-treated cells; FIG. 7
Excerpt: A valuable characteristic of a therapeutic material is a lack of toxicity. The compounds of formula (I) may have low toxicity towards cells. To examine this in vitro, the ability of 2-(2-hydroxyethoxy)-2-(4-hydroxy-3-methylphenyl)-1,3-dioxolane (Compound 1) to induce apoptosis (“programmed cell death) was investigated. A lack of cytotoxicity would be evidenced by the finding of equivalent proportions of apoptotic and viable cells in control- and compound-treated cells.
To examine the cytotoxicity of compounds of formula (I), S112 human dermal fibroblasts were exposed to a therapeutic concentration (50 μM) of 2-(2-hydroxyethoxy)-2-(4-hydroxy-3-methylphenyl)-1,3-dioxolane (Compound 1) or vehicle (control) and analysed for apoptosis by flow cytometric analysis of annexin V and propidium iodide staining, as described by Leech et al. ^(19). Toxicity was assessed by analysis of apoptosis using flow cytometric detection of cell surface Annexin V binding and propidium iodide staining. At least 5000 events were analysed for each experiment. Cells positive for both Annexin V and propidium iodide were designated as apoptotic and cells negative for both Annexin V and propidium iodide were designated as viable. Results are expressed as the percentage (%) of cells with each of these labels.

[2] = tested on: IL-1 induced COX-2 expression; test: MIF-dependent IL-1 induced fibroblast cyclooxygenase-2 expression (flow cytometry); assay type: cell-based, human; settings: for Mean % inhibition COX2 expression: S112 fibroblasts, IL-1 0.1 ng/ml, 6 h
Excerpt: The activity of the compounds of formula (I) were further studied in a bioassay utilising MIF-dependent activation of human dermal fibroblasts. Sampey et al have shown that induction of the expression of cyclooxygenase-2 (COX-2) by the cytokine interleukin 1 (IL-1) is dependent upon the presence of MIF, i.e. can be prevented using specific anti-MIF monoclonal antibody ^(17). IL-1-induced COX-2 expression is therefore a MIF-dependent event.
S112 human dermal fibroblasts were propagated in RPMI/10% foetal calf serum (FCS). Prior to experimentation, cells were seeded at 2×10^5 cells/ml in RPMI/0.1% BSA for 18 hours. […] After 6 hours, cells were collected and intracellular COX-2 protein determined by permeabilisation flow cytometry, as described by Sampey et al ^(18). Cells permeabilised with 0.2% saponin were sequentially labelled with a mouse anti-human COX-2 monoclonal antibody and with sheep-anti-mouse F(ab)2 fragment labelled with fluoroscein isothiocyanate. Cellular fluorescence was determined using a flow cytometer. At least 5000 events were counted for each reading, each of which was performed in duplicate, and the results expressed in mean fluorescence intensity (MFI) after subtraction of negative control-labelled cell fluorescence.
In Table 2 and FIG. 2, the effect of each concentration of 2-(2-hydroxyethoxy)-2-(4-hydroxy-3-methylphenyl)-1,3-dioxolane (Compound 1) was determined by subtracting the IL-1+ compound-treated cell MFI from the IL-1-treated cell MFI, and expressed as % inhibition.

[3] = tested on: IL-1 induced COX-2 expression; test: Combination of MIF-antagonist with glucocorticoid: IL-1 induced fibroblast COX-2 expression; assay type: cell-based, human; settings: for Mean COX-2 expression (MFI): control 0.7400, IL-1 49.37
Protocol: S112 human dermal fibroblasts were propagated in RPMI/10% foetal calf serum (FCS). Prior to experimentation, cells were seeded at 2×10^5 cells/ml in RPMI/0.1% BSA for 18 hours. Cells were treated with compound at 1-100 μM and 30 minutes later with recombinant human IL-1 (0.1 ng/ml). After 6 hours, cells were collected and intracellular COX-2 protein determined by permeabilisation flow cytometry, as described by Sampey et al ^(18). Cells permeabilised with 0.2% saponin were sequentially labelled with a mouse anti-human COX-2 monoclonal antibody and with sheep-anti-mouse F(ab)2 fragment labelled with fluoroscein isothiocyanate. Cellular fluorescence was determined using a flow cytometer. At least 5000 events were counted for each reading, each of which was performed in duplicate, and the results expressed in mean fluorescence intensity (MFI) after subtraction of negative control-labelled cell fluorescence.
The above in vitro assay (Biological Example 2) for analysing the effect of MIF antagonists on IL-1 induced COX-2 expression was performed using 2-(2-hydroxyethoxy)-2-(4′-hydroxy-3′-methylphenyl)-1,3-dioxolane (Compound 1) (50 μM), dexamethasone (1 nM) or a combination of dexamethasone (1 nM) and Compound 1 (50 μM). COX-2 expression was expressed as the mean fluorescence intensity (MFI) as measured by flow cytometry, after deduction of the MFI for control-labelled samples, as described by Sampey et al. ^(18).

[4] = tested on: MIF-induced proliferation of S112 human fibroblasts; test: MIF-induced human fibroblast proliferation (3H-thymidine incorporation); assay type: cell-based
Protocol: The activity of a compound of formula (I) was studied in a bioassay utilising MIF-induced proliferation of human dermal fibroblasts. […] S112 human dermal fibroblasts were propagated in RPMI/10% foetal calf serum (FCS). Prior to experimentation, cells were seeded at 10^5 cells/ml in RPMI/0.1% BSA for 18 hours. Cells were treated with recombinant human macrophage migration inhibitory factor (MIF) 50 ng/ml and/or a compound of the invention at a concentration of 1 nM. The compound was combined with MIF at time point −30 minutes, prior to adding to cell culture at time point zero. At time point zero, culture medium was replaced with RPMI/10% FCS and treatments administered. At time point 30 hours, cells were pulsed with 1 μCi ^3H-thymidine. At time point 48 hours, cells were harvested using a semi-automated cell harvester. The radioactivity incorporated into DNA was determined by liquid scintillation counting, with results expressed as ^3H-thymidine incorporation.

[5] = tested on: LPS-IFN—induced nitrite production; test: MIF-dependent nitrite production in peritoneal macrophages (Greiss assay); assay type: cell-based, mouse; settings: for inhibition at 100 µM: Mus musculus, Peritoneal macrophage, compound 100 μM, LPS 10 ng/ml + interferon-γ 10 units/ml, 24 h, read-out: % Inhibition of nitrite (± SD)
Protocol: MIF is able to induce or facilitate the expression and release of a wide variety of pro-inflammatory and/or destructive molecules, including the release of macrophage nitric oxide (NO) ^(20). A compound with the ability to inhibit the cytokine or biological function of MIF might be expected to inhibit the activation of NO production by macrophages.
C57BL6/J male mice were injected intraperitoneally with 2 ml of thioglycolate. Three days later peritoneal macrophages were collected by lavaging the peritoneum with 3 ml of cold Hank's buffered saline solution. Cells from several mice were pooled, washed and re-suspended in DMEM supplemented with 5% FCS. Cells were plated in 96 well plastic tissue culture plates at 1×10^5 cells/well. Cells were treated in triplicate wells with compound or vehicle for 1 hour in a 5% CO2 incubator at 37° C. Cells were then treated with LPS (10 ng/ml) and recombinant human interferon-γ (10 units/ml) and incubated for 24 hours. After 24 hours, 50 μl of supernatant from each well was carefully removed and transferred to ELISA plates. The production of NO was measured by analysing the concentration of nitrite in culture supernatants, as measured by the Greiss assay ^(21). The results were calculated as the percentage inhibition of nitrite concentration in compound-treated cell culture supernatants, compared to that of vehicle-treated cells.

[6] = tested on: MIF-induced proliferation of mouse NIH 3T3 fibroblasts; test: MIF-induced proliferation in mouse fibroblasts (3H-thymidine incorporation); assay type: cell-based; settings: Compound (10×^10−6M) + MIF 50 ng/ml; nil 1087, MIF + vehicle 1452
Protocol: The activity of compounds was studied in a bioassay utilising MIF-induced proliferation of mouse NIH 3T3 fibroblasts. […] NIH 3T3 cells were propagated in DMEM/10% foetal calf serum (FCS). Prior to experimentation, cells were seeded at 10^4 cells/well in 96-well plates in DMEM/10% FCS for 18 hours. The media was then replaced with DMEM/0.1% FCS and the cells incubated for a further 18 hr. At time point −1 hr, culture medium was replaced with DMEM/0.1% FCS and cells were treated with a compound of the invention at a final concentration of 10 μM or vehicle. At time point zero, cells were treated with MIF at a final concentration of 50 ng/ml. At time point 6 hr the cells were pulsed with 1 µCi/well of ^3H-thymidine. At time point 24 hours, cells were harvested using a semi-automated cell harvester. The radioactivity incorporated into DNA was determined by liquid scintillation counting, with results expressed as ^3H-thymidine incorporation (cpm). Statistical significance was analysed using the Mann-Whitney test.

[7] = tested on: LPS-induced serum IL-1, IL-6, and TNF; test: Mouse endotoxic shock model (serum cytokines by ELISA); assay type: in vivo
Excerpt: The activity of compounds was studied in the murine endotoxic shock model. In this model, features of shock, characterised by increased serum levels of cytokines such as IL-1, tumor necrosis factor (TNF), and interleukin 6 (IL-6), are induced by the injection of bacterial lipoloysaccharide (LPS). The in vivo production of IL-1, IL-6, and TNF in response to endotoxin has been previously shown to be dependent on MIF ^(23).
Groups of four mice were used in each experiment. Endotoxaemia was induced by intra-peritoneal injection of lipopolysaccharide (LPS) (5 mg/kg) in 300 μl saline. Mice injected with saline alone were used as a control group. Treatments were administered by intra-peritoneal injection at intervals 24 hours and 1 hour before intra-peritoneal LPS injection. Mice were treated with saline, compounds dissolved in DMSO/saline vehicle at a dose of 5-15 mg/kg body weight, or vehicle (containing matching concentrations of DMSO).
After 1.5 hours mice were humanely killed by CO2 inhalation then neck dislocation. Serum was obtained from blood obtained by cardiac puncture prior to death and measured for the concentration of cytokines including IL-1, TNF, and/or IL-6, by ELISA. Statistical significance was analysed using the Mann-Whitney test.

SMILES: Cc1cc(C2(OCCO)OCCO2)ccc1O [Compound 1, 2-(2-hydroxyethoxy)-2-(4-hydroxy-3-methylphenyl)-1,3-dioxolane]
- apoptotic cell numbers (Annexin V and propidium iodide positive) [1]: No significant increase
- viable cell numbers (Annexin V and propidium iodide negative) [1]: no significant decrease
- Mean % inhibition COX2 expression ([2]; 0.01 μM): 10.5%
- Mean % inhibition COX2 expression ([2]; 0.1 μM): 13.2%
- Mean % inhibition COX2 expression ([2]; 1 μM): 15.6* %
- Mean % inhibition COX2 expression ([2]; 10 μM): 19.5* %
- reduction in IL-1 induced COX-2 expression ([2]; 50 μM, P<0.01, FIG. 2): significant reduction
- Mean % inhibition COX2 expression ([2]; 50 μM): 31.4* %
- dose dependence of reduction in COX-2 expression ([2]; Table 2 and FIG. 3): dose-dependent reduction
- Mean COX-2 expression (MFI) ([3]; IL-1 + dexamethasone 1 nM + Compound 1 50 μM): 6.013* MFI
- enhancement of dexamethasone inhibition of IL-1-induced COX-2 expression ([3]; dexamethasone 1 nM + Compound 1 50 μM versus dexamethasone alone, P<0.05): significantly greater inhibition
- Mean cpm (3H-thymidine incorporation) ([4]; S112 cells, MIF 50 ng/ml + compound 1 nM, untreated 3245, MIF alone 4415, n=9): 2994* cpm
- inhibition of MIF-induced S112 human fibroblast proliferation ([4]; compound 1 nM pre-incubated with MIF, P<0.05): significantly inhibited

SMILES: Cc1ccc(-c2cnn(CCC(C)C)c2)cc1 [Compound 13, 1-(3-Methylbutyl)-4-(4-methylphenyl)-1H-pyrazole]
- inhibition of LPS-IFN—induced nitrite production ([5]; 0.5-100 μM, FIG. 8): dose-responsive inhibition
- inhibition at 100 µM [5]: 91 ± 8%
- effect on serum IL-1 ([7]; 5 mg/kg): inhibitory effect
- IL-1 (pg/ml), serum ([7]; 5 mg/kg i.p. 24 h and 1 h before LPS 5 mg/kg, 1.5 h after LPS, saline 175 ± 43, LPS plus vehicle 428 ± 168): 305 ± 51 pg/mL
- effect on serum IL-6 ([7]; 15 mg/kg): inhibitory effect
- effect on serum TNF ([7]; 15 mg/kg): inhibitory effect
- IL-6 (ng/ml), serum ([7]; 15 mg/kg i.p. 24 h and 1 h before LPS 5 mg/kg, 1.5 h after LPS, saline 4 ± 4, LPS plus vehicle 118 ± 30): 92 ± 7 ng/mL
- TNF (pg/ml), serum ([7]; 15 mg/kg i.p. 24 h and 1 h before LPS 5 mg/kg, 1.5 h after LPS, saline 189 ± 69, LPS plus vehicle 2022 ± 1245): 1067 ± 191 pg/mL
- Mean cpm (3H-thymidine incorporation) [6]: 1015 cpm

SMILES: CCCCCCC1(c2ccc(C)cc2)SCCS1 [Compound 17, 2-Hexyl-2-(4-methylphenyl)-1,3-dithiolane]
- inhibition at 100 µM [5]: 69 ± 2%
- inhibition of LPS-induced serum IL-6 ([7]; 5 and 15 mg/kg, FIG. 10b): marked inhibition
- inhibition of LPS-induced serum TNF ([7]; 5 and 15 mg/kg, FIG. 10c): marked inhibition
- inhibition of LPS-induced serum IL-1 ([7]; 5 and 15 mg/kg, statistically significant P<0.05, FIG. 10a): marked inhibition
- Mean cpm (3H-thymidine incorporation) [6]: 933.2 cpm

SMILES: C[C@@H]1C[C@H]2[C@@H]3CCC4=CC(=O)C=C[C@]4(C)[C@@]3(F)[C@@H](O)C[C@]2(C)[C@@]1(O)C(=O)CO [DEX, dexamethasone, reference compound]
- Mean COX-2 expression (MFI) ([3]; IL-1 + dexamethasone 1 nM alone): 15.13 MFI

Second part, led by results:

- melting point: 107 °C
SMILES: Brc1ccc(C2NCCS2)cc1 (stereo not shown) [Compound 4, 2-(4-Bromophenyl)-1,3-thiazolane]
- inhibition at 100 µM [5]: 22 ± 1%

- melting point: 94 to 95 °C
SMILES: COc1ccc(C2NCCS2)cc1 (stereo not shown) [Compound 5, 2-(4-Methoxyphenyl)-1,3-thiazolane]
- inhibition at 100 µM [5]: 22 ± 2%

- melting point: 158 to 161 °C
SMILES: COc1cc(C2NCCS2)ccc1O (stereo not shown) [Compound 7, 2-(4-Hydroxy-3-methoxyphenyl)-1,3-thiazolane]
- inhibition at 100 µM [5]: 15 ± 1%
- Mean cpm (3H-thymidine incorporation) [6]: 1281 cpm

- melting point: 54 to 56 °C
SMILES: COc1ccc(C2NCCS2)cc1OC (stereo not shown) [Compound 8, 2-(3,4-Dimethoxyphenyl)-1,3-thiazolane]
- Mean cpm (3H-thymidine incorporation) [6]: 1238 cpm
